# Reference: patent US6653303B1, “Cycloalkyl, lactam, lactone and related compounds, pharmaceutical compositions comprising same, and methods for inhibiting β-amyloid peptide release and/or its synthesis by use of such compounds” (Athena Neurosciences, Inc., priority 1996, dated 2003)
row,melting point,Structure (SMILES)
1,236 to 239 °C,CN1C(=O)C(NC(=O)Cc2cc(F)cc(F)c2)N=C(c2ccccc2)c2ccccc21 (centres unmarked)
2,155 to 158 °C,CCN1C(=O)C(NC(=O)[C@H](C)NC(=O)Cc2cc(F)cc(F)c2)N=C(c2ccccc2)c2ccccc21 (some centres unmarked)
3,128 to 129 °C,C[C@H](NC(=O)C(=O)c1cc(F)cc(F)c1)C(=O)NC1N=C(c2ccccc2)c2ccccc2N(C)C1=O (some centres unmarked)
4,205 to 206 °C,CCC(=S)N[C@@H](C)C(=O)NC1N=C(c2ccccc2)c2ccccc2N(C)C1=O (some centres unmarked)
5,228 to 229 °C,CC(C)[C@H](NC(=O)Cc1cc(F)cc(F)c1)C(=O)NC1N=C(c2ccccc2)c2ccccc2N(C)C1=O (some centres unmarked)
6,221 to 222 °C,CN1C(=O)C(NC(=O)[C@@H](NC(=O)Cc2cc(F)cc(F)c2)C(C)(C)C)N=C(c2ccccc2)c2ccccc21 (some centres unmarked)
7,203 to 205 °C,C[C@H](NC(=O)Cc1cc(F)cc(F)c1)C(=O)NC1N=C(c2ccccc2)c2ccccc2N(CC2CC2)C1=O (some centres unmarked)
8,199 °C,"CC(Nc1ccc(Cl)c(Cl)c1)C(=O)NC1CCCNC(=O)C1 (racemic) [Example 5-31, 3-(N′-(3,4-Dichlorophenyl)-D,L-alaninyl)amino-ε-caprolactam]"
9,255 to 256 °C,"C[C@H](NC(=O)C(O)c1cc(F)cc(F)c1)C(=O)NC1C(=O)N(C)c2ccccc2N(c2ccccc2)C1=O (single isomer, unassigned)"
10,240 to 241 °C,"C[C@H](NC(=O)C(O)c1cc(F)cc(F)c1)C(=O)NC1N=C(c2ccccc2)c2ccccc2N(C)C1=O (single isomer, unassigned)"
11,119 to 120 °C,"C[C@H](NC(=O)C(F)c1cc(F)cc(F)c1)C(=O)NC1N=C(c2ccccc2)c2ccccc2N(C)C1=O (single isomer, unassigned)"
12,200 to 205 °C,"C[C@H](NC(=O)Cc1cc(F)cc(F)c1)C(=O)NC1C(=O)NC(c2ccccc2)c2ccccc21 (single isomer, unassigned) [Example 5-10, 4-(N′-(3,5-Difluorophenylacetyl)-L-alaninyl)amino-1-phenyl-1,2,3,4tetrahydroisoquinolin-3-one]"
13,195 to 200 °C,"C[C@H](NC(=O)Cc1cc(F)cc(F)c1)C(=O)NC1C(=O)NCc2cc(F)ccc21 (single isomer, unassigned) [Example 5-12, 4(N′-(3,5-Difluorophenylacetyl)-L-alaninyl)amino-7-fluoro-1,2,3,4tetrahydroisoquinolin-3-one]"
14,196 to 199 °C,"C[C@H](NC(=O)Cc1cc(F)cc(F)c1)C(=O)NC1Cc2ccccc2N(Cc2ccccc2)C1=O (stereo partly drawn) [Example 5-6, 1-Benzyl-3-(N′-(3,5-difluorophenylacetyl)-L-alaninyl)amino-1,2,3,4-tetrahydroquinolin-2-one]"
15,243 to 244 °C,"C[C@H](NC(=O)Cc1cc(F)cc(F)c1)C(=O)NC1C(=O)NCc2ccccc21 (stereo partly drawn) [Example 5-7, 4-(N′-(3,5-Difluorophenylacetyl)-L-alaninyl)amino-1,2,3,4-tetrahydroisoquinolin-3-one]"
16,144 to 145 °C,"C[C@H](NC(=O)Cc1cc(F)cc(F)c1)C(=O)NC1C(=O)N(Cc2ccccc2)Cc2ccccc21 (stereo partly drawn) [Example 5-8, 4-(N′-(3,5-Difluorophenylacetyl)-L-alaninyl)amino-2-benzyl-1,2,3,4-tetrahydroisoquinolin-3-one]"
17,205 to 206 °C,"CC1NC(=O)C(NC(=O)[C@H](C)NC(=O)Cc2cc(F)cc(F)c2)c2ccccc21 (stereo partly drawn) [Example 5-9, 4-(N′-(3,5-Difluorophenylacetyl)-L-alaninyl)amino-1-methyl-1,2,3,4-tetrahydroisoquinolin-3-one]"
18,75 to 76 °C,"C[C@H](NC(=O)Cc1cc(F)cc(F)c1)C(=O)NC1C(=O)N(CCc2ccccc2)Cc2ccccc21 (stereo partly drawn) [Example 5-13, 4-(N′-(3,5-Difluorophenylacetyl)-L-alaninyl)amino-2-phenethyl-1,2,3,4-tetrahydroisoquinolin-3-one]"
19,174 to 175 °C,"C[C@H](NC(=O)Cc1cc(F)cc(F)c1)C(=O)NC1C(=O)N(C)Cc2ccccc21 (stereo partly drawn) [Example 5-14, 4-(N′-(3,5-Difluorophenylacetyl)-L-alaninyl)amino-2-methyl-1,2,3,4-tetrahydroisoquinolin-3-one]"
20,> 240 °C (dec.),"C[C@H](NC(=O)Cc1cc(F)cc(F)c1)C(=O)NC1C(=O)NCc2cc(-c3ccccc3)ccc21 (stereo partly drawn) [Example 5-16, 4-(N′-(3,5-Difluorophenylacetyl)-L-alaninyl)amino-7-phenyl-1,2,3,4-tetrahydroisoquinolin-3-one]"
21,200 to 202 °C,"C[C@H](NC(=O)Cc1ccccc1)C(=O)NC1CCCNC(=O)C1 (stereo partly drawn) [Example 5-18, 3-(N′-(Phenylacetyl)-L-alaninyl)amino-ε-caprolactam]"

row,melting point,Structure (SMILES)
1,> 220 °C,"C[C@H](NC(=O)Cc1cc(F)cc(F)c1)C(=O)NC1CCCCCNC(=O)C1 (stereo partly drawn) [Example 5-33, 3-(N′-(3,5-Difluorophenylacetyl)-L-alaninyl)amino-8-octanelactam]"
2,159 to 166 °C,"C[C@H](NC(=O)Cc1cc(F)cc(F)c1)C(=O)NC1C(=O)NCc2cc(Cc3ccccc3)ccc21 (stereo partly drawn) [Example 5-34, 4-(N′-(3,5-Difluorophenylacetyl)-L-alaninyl)amino-7-benzyl-1,2,3,4-tetrahydroisoquinolin-3-one]"
3,106 to 107 °C,"C[C@H](NC(=O)Cc1cc(F)cc(F)c1)C(=O)NC1C(=O)NC(Cc2ccccc2)c2ccccc21 (stereo partly drawn) [Example 5-35, 4-(N′-(3,5-Difluorophenylacetyl)-L-alaninyl)amino-1-benzyl-1,2,3,4-tetrahydroisoquinolin-3-one]"
4,100 °C,"C[C@H](NC(=O)Cc1cc(F)cc(F)c1)C(=O)NC1C(=O)NC(c2ccccn2)c2ccccc21 (stereo partly drawn) [Example 5-37, 4-(N′-(3,5-Difluorophenylacetyl)-L-alaninyl)amino-1-(pyrid-2-yl)-1,2,3,4-tetrahydroisoquinolin-3-one]"
5,100 to 120 °C,"C[C@H](NC(=O)Cc1cc(F)cc(F)c1)C(=O)NC1C(=O)NC(c2cccnc2)c2ccccc21 (stereo partly drawn) [Example 5-38, 4-(N′-(3,5-Difluorophenylacetyl)-L-alaninyl)amino-1-(pyrid-3-yl)-1,2,3,4-tetrahydroisoquinolin-3-one]"
6,100 °C,"C[C@H](NC(=O)Cc1cc(F)cc(F)c1)C(=O)NC1C(=O)NC(c2ccncc2)c2ccccc21 (stereo partly drawn) [Example 5-39, 4-(N′-(3,5-Difluorophenylacetyl)-L-alaninyl)amino-1-(pyrid-4-yl)-1,2,3,4-tetrahydroisoquinolin-3-one]"
7,115 to 119 °C,"CC1CC(NC(=O)[C@H](C)NC(=O)Cc2cc(F)cc(F)c2)C(=O)N(C)c2ccccc21 (stereo partly drawn) [Example 6-8, 3-(N′-(3,5-Difluorophenylacetyl)-L-alaninyl)amino-1,5-dimethyl-1,3,4,5-tetrahydro-2H-1-benzazepin-2-one]"
8,185 to 187 °C,"CC1CC(NC(=O)Cc2cc(F)cc(F)c2)C(=O)N(C)c2ccccc21 (centres unmarked) [Example 6-9, 3-(3,5-Difluorophenylacetyl)amino-1,5-dimethyl-1,3,4,5-tetrahydro-2H-1-benzazepin-2-one]"
9,110 to 114 °C,"C[C@H](NC(=O)Cc1cc(F)cc(F)c1)C(=O)N[C@H]1COc2ccccc2N(C)C1=O [Example 6-10, 3-(S)-(N′-(3,5-Difluorophenylacetyl)-L-alaninyl)amino-1-methyl-5-oxa-1,3,4,5-tetrahydro-2H-1-benzazepin-2-one]"
10,188 to 191 °C,"CCN1C(=O)[C@@H](NC(=O)[C@H](C)NC(=O)Cc2cc(F)cc(F)c2)COc2ccccc21 [Example 6-11, 3-(S)-(N′-(3,5-Difluorophenylacetyl)-L-alaninyl)amino-1-ethyl-5-oxa-1,3,4,5-tetrahydro-2H-1-benzazepin-2-one]"
11,156 to 159 °C,"C[C@H](NC(=O)Cc1cc(F)cc(F)c1)C(=O)N[C@@H]1CSc2ccccc2N(C)C1=O [Example 6-12, 3-(S)-(N′-(3,5-Difluorophenylacetyl)-L-alaninyl)amino-1-methyl-5-thia-1,3,4,5-tetrahydro-2H-1-benzazepin-2-one]"
12,232 to 233 °C,"CC(C)N1C(=O)C(NC(=O)[C@H](C)NC(=O)Cc2cc(F)cc(F)c2)C(=O)N(C(C)C)c2ccccc21 [Example 8-146, 3-[N′-(3,5-Difluorophenylacetyl)-L-alaninyl]amino-2,4-dioxo-1,5-bis-(1-methylethyl)-2,3,4,5-tetrahydro-1H-1,5-benzodiazepine]"
13,206 to 207 °C,"C[C@H](NC(=O)Cc1cc(F)cc(F)c1)C(=O)NC1C(=O)N(C)c2ccccc2N(C)C1=O [Example 8-150, 3-[N′-(3,5-Difluorophenylacetyl)-L-alaninyl]amino-2,4-dioxo-1,5-bis-methyl-2,3,4,5-tetrahydro-1H-1,5-benzodiazepine]"
14,197 to 198 °C,"CC(C)CN1C(=O)C(NC(=O)[C@H](C)NC(=O)Cc2cc(F)cc(F)c2)C(=O)N(CC(C)C)c2ccccc21 [Example 8-152, 3-[N′-(3,5-Difluorophenylacetyl)-L-alaninyl]amino-2,4-dioxo-1,5-bis-(2-methylpropyl)-2,3,4,5-tetrahydro-1H-1,5-benzodiazepine]"
15,119 to 129 °C,"C[C@H](NC(=O)C(O)C1CCCC1)C(=O)NC1C(=O)N(CC(C)(C)C)c2ccccc2N(CC(C)(C)C)C1=O (stereo partly drawn) [Example 8-162, 3-[N′-(Cyclopentyl-α-hydroxyacetyl)-L-alaninyl]amino-2,4-dioxo-1,5-bis-(2,2-dimethylpropyl)-2,3,4,5-tetrahydro-1H-1,5-benzodiazepine]"
16,93 to 95 °C,"CCOC(=O)[C@H](C)NC(=O)Cc1cc(F)cc(F)c1 [Example B64, N-[(3,5-Difluorophenyl)acetyl]alanine Ethyl Ester]"
17,92 to 93 °C,"CC(C)COC(=O)[C@H](C)NC(=O)CC1CCCCC1 [Example B70, N-(Cyclohexylacetyl)-L-alanine iso-Butyl Ester]"
18,62 to 64 °C,"CC(C)COC(=O)[C@H](C)NC(=O)CC1CCCC1 [Example B71, N-(Cyclopentylacetyl)-L-alanine iso-Butyl Ester]"
19,49 to 51 °C,"CC(C)COC(=O)[C@H](C)NC(=O)CC1=CCCCC1 [Example B72, N-[(Cyclohex-1-enyl)acetyl]-L-alanine iso-Butyl Ester]"
20,83 to 86 °C,"COC(=O)[C@@H](NC(=O)CC1CCCC1)c1ccccc1 [Example B77, N-(Cyclopentylacetyl)-L-phenylglycine Methyl Ester]"
